Reference: patent publication US20240374590A1, “COMPOSITIONS AND METHODS FOR TREATING CANCER” (A2A PHARMACEUTICALS, INC., priority 2021, published 2024)

Legend:
[1] = system: HCT-116 human colon carcinoma cell line; test: Cell viability assay (SRB) in HCT-116; format: cell-based; conditions: 72 hours after treatment, read-out: HCT116 IC50
Summary of the method: (§1)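 JIMT-1 (3×10^3 cells/well) and HCT-116 (4×10^3 cells/well) cells were seeded and treated with inhibitors at several concentrations 24 h later. Viability was read by sulforhodamine B staining 72 h after treatment. JIMT-1 was grown in DMEM and HCT-116 in McCoy's 5A, both with FBS.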

[2] = system: JIMT-1 human breast cancer cell line; test: Cell viability assay (SRB) in JIMT-1; format: cell-based; conditions: 72 hours after treatment, read-out: JIMT1 IC50
Summary of the method: as §1

[3] = system: RKO xenograft; test: RKO colon cancer xenograft tumor growth in nude mice; format: in vivo, mouse; conditions: female athymic nude mice
Description: Six-to-eight-week-old female athymic nude mice were housed with a temperature-controlled and 12-hour light/12-hour dark cycle environment. For in vivo colon cancer tumor growth, 1×10^6 RKO cells were prepared in 100 μL of DMEM and injected into right flank of female nude mice. Mouse weight and tumor volume were measured twice a week. Tumor volumes were calculated as length×width^2×0.5. Once the tumor volume had reached about 100 mm^3, xenografts were randomized into groups (5 mice per group). Animals were treated with vehicle and Compound 129b. The formulation for vehicle and Compound 129b was 50% PEG400 and 20% Cremophor RH40 final (50% of 40% Cremophor) in Acetate buffer, PH=4. The mouse were sacrificed after 4 weeks or if the tumors reached a predefined tumor volume cut-off of 2500 mm^3. […] For instance, at the highest does, a TGI of at least 80% was observed (FIG. 1). PGP-71

[4] = system: CT-26 xenografts; test: CT-26 mouse colon xenograft model; format: in vivo; conditions: CT-26 xenograft, female Balb/c mice; 15, 25, 50 mpk QD, 5 mpk IV BIW, 5 mpk IP QD
Description: Compound 129b was also tested in CT-26 mouse colon xenograft models. For CT-26 xenografts 5×10^5 CT-26 cells in 100 μL was injected in the right flank of six-to-eight-week-old female Balb/c mice. When the tumor volume reached mean of ˜100 mm^3, mice were randomized in a group of 5 and treatment was initiated vehicle, 15 mpk QD, 25 mpk QD, 50 mpk QD, 5 mpk IV BIW, and 5 mpk IP QD of Compound 129b.

| SMILES | IC50 [1] [µM] | IC50 [2] [µM] | tumor growth inhibition (in words) ([3]; 100 mg/kg PO QD/BID/TID) | TGI ([3]; highest dose (100 mg/kg PO TID, 28 days)) | tumor growth inhibition or regression (in words) [4] |
| --- | --- | --- | --- | --- | --- |
| COc1ccc(-c2cc(Nc3ccnc(N4C[C@@H](C)O[C@@H](C)C4)n3)[nH]n2)c(F)c1 [Compound 129b, 2-((2R,6S)-2,6-dimethylmorpholino)-N-(3-(2-fluoro-4-methoxyphenyl)-1H-pyrazol-5-yl)pyrimidin-4-amine] | 0.034 | 0.003 | strong tumor growth inhibition | at least 80% | Strong and statistically significant tumor growth inhibition or regression |
| COc1ccc(-c2cc(Nc3ccnc(N4C[C@@H](C)O[C@@H](C)C4)n3)[nH]n2)cc1C(F)(F)F [Compound 207, 2-((2R,6S)-2,6-dimethylmorpholino)-N-(3-(4-methoxy-3-(trifluoromethyl)phenyl)-1H-pyrazol-5-yl)pyrimidin-4-amine] | 5.53 | 0.974 | – | – | – |
| COc1ccc(-c2cc(Nc3ccnc(N4CCC(C)C4)n3)[nH]n2)c(F)c1 (stereo not shown) [Compound 160, N-(3-(2-fluoro-4-methoxyphenyl)-1H-pyrazol-5-yl)-2-(3-methylpyrrolidin-1-yl)pyrimidin-4-amine] | 0.147 | 0.039 | – | – | – |
| C[C@@H]1CN(c2nccc(Nc3cc(-c4ccc(OC(F)F)cc4)n[nH]3)n2)C[C@@H](C)O1 [Compound 240, N-(3-(4-(difluoromethoxy)phenyl)-1H-pyrazol-5-yl)-2-((2R,6R)-2,6-dimethylmorpholino)pyrimidin-4-amine] | 1.06 | 0.103 | – | – | – |
| FC(F)Oc1ccc(-c2cc(Nc3ccnc(N4CCC4)n3)[nH]n2)cc1 [Compound 244, 2-(azetidin-1-yl)-N-(3-(4-(difluoromethoxy)phenyl)-1H-pyrazol-5-yl)pyrimidin-4-amine] | 1.12 | 0.046 | – | – | – |
| COc1ccc(-c2cc(Nc3ccnc(N4CCOC(C)(C)C4)n3)[nH]n2)cc1F [Compound 92, 2-(2,2-dimethylmorpholino)-N-(3-(3-fluoro-4-methoxyphenyl)-1H-pyrazol-5-yl)pyrimidin-4-amine] | 0.488 | 0.245 | – | – | – |
| COc1ccc(-c2cc(Nc3ccnc(N4CCC(C(F)(F)F)CC4)n3)[nH]n2)cc1F [Compound 89, N-(3-(3-fluoro-4-methoxyphenyl)-1H-pyrazol-5-yl)-2-(4-(trifluoromethyl)piperidin-1-yl)pyrimidin-4-amine] | 0.009 | 0.031 | – | – | – |
| COc1ccc(-c2cc(Nc3ccnc(N4C[C@@H](C)O[C@@H](C)C4)n3)[nH]n2)cc1 [Compound 59b, 2-((2R,6S)-2,6-dimethylmorpholino)-N-(3-(4-methoxyphenyl)-1H-pyrazol-5-yl)pyrimidin-4-amine] | 0.003 | 0.017 | – | – | – |
| COc1ccc(-c2cc(Nc3ccnc(N4C[C@@H](C)O[C@H](C)C4)n3)[nH]n2)c(F)c1 [Compound 149, 2-((2R,6R)-2,6-dimethylmorpholino)-N-(3-(2-fluoro-4-methoxyphenyl)-1H-pyrazol-5-yl)pyrimidin-4-amine] | 0.115 | 0.065 | – | – | – |
| COc1ccc(-c2n[nH]c(Nc3ccnc(N4CCOCC4)n3)c2C)cc1 [Compound 181, N-(3-(4-methoxyphenyl)-4-methyl-1H-pyrazol-5-yl)-2-morpholinopyrimidin-4-amine] | 4.48 | 2.63 | – | – | – |
| C[C@@H]1CN(c2nccc(Nc3cc(-c4ccc5c(c4)CCC5)[nH]n3)n2)C[C@H](C)O1 [Compound 211, N-(5-(2,3-dihydro-1H-inden-5-yl)-1H-pyrazol-3-yl)-2-((2R,6S)-2,6-dimethylmorpholino)pyrimidin-4-amine] | 0.039 | 0.043 | – | – | – |
| COc1ccc(-c2cc(N(C)c3ccnc(N4C[C@@H](C)O[C@@H](C)C4)n3)[nH]n2)c(F)c1 [Compound 275, 2-((2R,6S)-2,6-dimethylmorpholino)-N-(3-(2-fluoro-4-methoxyphenyl)-1H-pyrazol-5-yl)-N-methylpyrimidin-4-amine] | 0.046 | 0.013 | – | – | – |
| COc1ccc(-c2cc(Nc3ccnc(N4CCC5(CC4)CC5)n3)[nH]n2)c(F)c1 [Compound 144, N-(3-(2-fluoro-4-methoxyphenyl)-1H-pyrazol-5-yl)-2-(6-azaspiro[2.5]octan-6-yl)pyrimidin-4-amine] | 0.33 | 0.119 | – | – | – |
| C[C@@H]1CN(c2nccc(N(C)c3cc(-c4ccc(OCF)cc4)n[nH]3)n2)C[C@H](C)O1 [Compound 277, 2-((2R,6S)-2,6-dimethylmorpholino)-N-(3-(4-(fluoromethoxy)phenyl)-1H-pyrazol-5-yl)-N-methylpyrimidin-4-amine] | 0.269 | 0.204 | – | – | – |
